{"source": "patent US7163689B2", "about": "“Intravenous valproate for acute treatment of migraine headache” (priority 1999, dated 2007)", "key": {"[1]": {"test_system": "patients with moderate to severe migraine headaches of duration of 24 to 96 hrs", "test": "Pilot study: IV valproate vs IM DHE with metoclopramide for abortive treatment of acute migraine headache (Example 1)", "type": "in vivo, human", "conditions": "for % Headache Relief: 5 patients per group; for Headache Severity / Nausea/vomiting / Phonophobia / Photophobia: individual patient; for Headache Severity: grade 0-3; for Nausea/vomiting / Phonophobia / Photophobia: presence", "description": "This Example describes the results of a pilot study using intravenous valproate for abortive treatment of acute migraine headache. • Methods. Patients with established diagnosis of migraine with and without aura were considered for randomization to intravenous (“IV”) valproate (“VPA”) or intramuscular (“IM”) dihydroergotamine (“DHE”) with metoclopramide, also referred to herein as […]®, for patients with moderate to severe migraine headaches of duration of 24 to 96 hrs. Patients received intravenous infusion of 500 mgs of valproate over 30 mins or 1 mg DHE with 10 mgs metoclopramide IM. Headache severity, presence of nausea, phonophobia and photophobia were rated at baseline, 1 hr, 2 hrs, and 4 hrs. Table I and II. There were 5 patients in each group. • Results. Of the 5 patients receiving valproate, 4 of the 5 had response of their headaches from moderate or severe to none or mild at 1 hr, 2 hrs, and 4 hrs. Of the 5 patients receiving DHE, 3 of the 5 patients had headache response to moderate or severe to mild or none at 1 hr, 2 hrs, and 4 hrs. Table III. […] In the DHE group, 2 of 5 had nausea at baseline, and 1 had nausea at 1 hr, 2 hrs, and 4 hrs. Table IVa. […] In the DHE group, 3 of 5 had relief of photophobia at 1 hr, 4 of 5 had relief at 2 hrs and 4 hrs. […] In the DHE group, 2 of 5 had relief of phonophobia at 1 hr, and 3 of 5 had relief of phonophobia at 2 hrs and 4 hrs. Table IVb. • Conclusions. Intravenous valproate is an alternative therapy for abortive treatment of moderate to severe prolonged acute migraine headache. Anti-convulsant mechanisms may be relevant to treatment of headache symptomatology."}, "[2]": {"test_system": "patients with moderate to severe headaches of 24–72 hours duration", "test": "Expanded study: IV VPA vs DHE with metoclopramide IM, acute migraine headache (Example 2)", "type": "in vivo, human", "conditions": "24-h"}, "acute migraine headache": {"test_system": "acute migraine headache", "conditions": "at 2 hours after administration; cited from earlier work"}}, "note": "Values joined by “and” are separate entries in the source; they are usually repeats but may differ in a detail not shown here. Identical values can stand only once.", "data": [{"smiles": "CN1C[C@H](C(=O)N[C@]2(C)O[C@@]3(O)[C@@H]4CCCN4C(=O)[C@H](Cc4ccccc4)N3C2=O)C[C@@H]2c3cccc4[nH]cc(c34)C[C@H]21", "note": "[DHE, dihydroergotamine]", "values": [{"measurement": "% experiencing Nausea", "setting": "[1]; 0-h (baseline)", "result": 40, "unit": "%"}, {"measurement": "% experiencing Photophobia", "setting": "[1]; 0-h (baseline)", "result": 100, "unit": "%"}, {"measurement": "% experiencing phonphobia", "setting": "[1]; 0-h (baseline)", "result": 80, "unit": "%"}, {"measurement": "% experiencing Nausea", "setting": "[1]; 1-h", "result": 20, "unit": "%"}, {"measurement": "% experiencing Photophobia", "setting": "[1]; 1-h", "result": 60, "unit": "%"}, {"measurement": "% experiencing phonphobia", "setting": "[1]; 1-h", "result": 40, "unit": "%"}, {"measurement": "% experiencing Nausea", "setting": "[1]; 2-h", "result": 50, "unit": "%"}, {"measurement": "% experiencing Photophobia", "setting": "[1]; 2-h", "result": 50, "unit": "%"}, {"measurement": "% experiencing phonphobia", "setting": "[1]; 2-h", "result": 50, "unit": "%"}, {"measurement": "% experiencing Nausea", "setting": "[1]; 4-h", "result": 40, "unit": "%"}, {"measurement": "% experiencing Photophobia", "setting": "[1]; 4-h", "result": 40, "unit": "%"}, {"measurement": "% experiencing phonphobia", "setting": "[1]; 4-h", "result": 40, "unit": "%"}, {"measurement": "% Headache Relief", "setting": "[1]; 1-h", "result": 60, "unit": "%"}, {"measurement": "% Headache Relief", "setting": "[1]; 2-h", "result": 50, "unit": "%"}, {"measurement": "% Headache Relief", "setting": "[1]; 4-h", "result": 60, "unit": "%"}, {"measurement": "Headache Severity", "setting": "[1]; 0-h (baseline), Depacon IV 500 mg or DHE 1 mg + Reglan 10 mg", "result": "2 and 3 (4×)"}, {"measurement": "Headache Severity", "setting": "[1]; 1-h", "result": "3 and 0 (2×) and 1 and 2"}, {"measurement": "Headache Severity", "setting": "[1]; 2-h", "result": "3 and 0 (2×) and 2"}, {"measurement": "Headache Severity", "setting": "[1]; 4-h", "result": "3 and 1 and 0 (2×) and 2"}, {"measurement": "Nausea/vomiting", "setting": "[1]; 0-h (baseline)", "result": 0}, {"measurement": "Phonophobia", "setting": "[1]; 0-h (baseline)", "result": 0}, {"measurement": "Nausea/vomiting", "setting": "[1]; 1-h", "result": 0}, {"measurement": "Phonophobia", "setting": "[1]; 1-h", "result": 0}, {"measurement": "Photophobia", "setting": "[1]; 1-h", "result": 0}, {"measurement": "Nausea/vomiting", "setting": "[1]; 2-h", "result": 0}, {"measurement": "Phonophobia", "setting": "[1]; 2-h", "result": 0}, {"measurement": "Photophobia", "setting": "[1]; 2-h", "result": 0}, {"measurement": "Nausea/vomiting", "setting": "[1]; 4-h", "result": 0}, {"measurement": "Phonophobia", "setting": "[1]; 4-h", "result": 0}, {"measurement": "Photophobia", "setting": "[1]; 4-h", "result": 0}, {"measurement": "Nausea/vomiting", "setting": "[1]; 24-h", "result": 0}, {"measurement": "Phonophobia", "setting": "[1]; 24-h", "result": 0}, {"measurement": "Photophobia", "setting": "[1]; 24-h", "result": 0}, {"measurement": "patients who had nausea", "setting": "[1]; of 5 patients, 1 hr", "result": 1}, {"measurement": "patients who had relief of phonophobia", "setting": "[1]; of 5 patients, 1 hr", "result": "2 of 5"}, {"measurement": "patients who had relief of photophobia", "setting": "[1]; of 5 patients, 1 hr", "result": "3 of 5"}, {"measurement": "patients with response of headache from moderate or severe to none or mild", "setting": "[1]; of 5 patients, 1 hr", "result": "3 of the 5"}, {"measurement": "patients who had nausea", "setting": "[1]; of 5 patients, 2 hrs", "result": 1}, {"measurement": "patients who had relief of phonophobia", "setting": "[1]; of 5 patients, 2 hrs", "result": "3 of 5"}, {"measurement": "patients who had relief of photophobia", "setting": "[1]; of 5 patients, 2 hrs", "result": "4 of 5"}, {"measurement": "patients with response of headache from moderate or severe to none or mild", "setting": "[1]; of 5 patients, 2 hrs", "result": "3 of the 5"}, {"measurement": "patients who had nausea", "setting": "[1]; of 5 patients, 4 hrs", "result": 1}, {"measurement": "patients who had relief of phonophobia", "setting": "[1]; of 5 patients, 4 hrs", "result": "3 of 5"}, {"measurement": "patients who had relief of photophobia", "setting": "[1]; of 5 patients, 4 hrs", "result": "4 of 5"}, {"measurement": "patients with response of headache from moderate or severe to none or mild", "setting": "[1]; of 5 patients, 4 hrs", "result": "3 of the 5"}, {"measurement": "patients who had nausea", "setting": "[1]; of 5 patients, baseline", "result": "2 of 5"}, {"measurement": "% experiencing Photophobia", "setting": "[2]", "result": 20, "unit": "%"}, {"measurement": "Photophobia", "setting": "[2]; individual patient, presence", "result": 0}, {"measurement": "subjects with good relief of acute migraine headache", "setting": "acute migraine headache", "result": "70–80%"}]}, {"smiles": "CCCC(CCC)C(=O)[O-].[Na+]", "note": "[Depacon, valproate sodium]", "values": [{"measurement": "% experiencing Nausea", "setting": "[1]; 0-h (baseline)", "result": 80, "unit": "%"}, {"measurement": "% experiencing Photophobia", "setting": "[1]; 0-h (baseline)", "result": 100, "unit": "%"}, {"measurement": "% experiencing phonphobia", "setting": "[1]; 0-h (baseline)", "result": 80, "unit": "%"}, {"measurement": "% experiencing Nausea", "setting": "[1]; 1-h", "result": 20, "unit": "%"}, {"measurement": "% experiencing Photophobia", "setting": "[1]; 1-h", "result": 20, "unit": "%"}, {"measurement": "% experiencing phonphobia", "setting": "[1]; 1-h", "result": 20, "unit": "%"}, {"measurement": "% experiencing Nausea", "setting": "[1]; 2-h", "result": 20, "unit": "%"}, {"measurement": "% experiencing Photophobia", "setting": "[1]; 2-h", "result": 20, "unit": "%"}, {"measurement": "% experiencing phonphobia", "setting": "[1]; 2-h", "result": 20, "unit": "%"}, {"measurement": "% experiencing Nausea", "setting": "[1]; 4-h", "result": 0, "unit": "%"}, {"measurement": "% experiencing Photophobia", "setting": "[1]; 4-h", "result": 0, "unit": "%"}, {"measurement": "% experiencing phonphobia", "setting": "[1]; 4-h", "result": 0, "unit": "%"}, {"measurement": "% Headache Relief", "setting": "[1]; 1-h", "result": 60, "unit": "%"}, {"measurement": "% Headache Relief", "setting": "[1]; 2-h", "result": 100, "unit": "%"}, {"measurement": "% Headache Relief", "setting": "[1]; 4-h", "result": 80, "unit": "%"}, {"measurement": "% Headache Relief", "setting": "[1]; 24-h", "result": 40, "unit": "%"}, {"measurement": "% experiencing Nausea", "setting": "[1]; 24-h", "result": 40, "unit": "%"}, {"measurement": "% experiencing Photophobia", "setting": "[1]; 24-h", "result": 40, "unit": "%"}, {"measurement": "% experiencing phonphobia", "setting": "[1]; 24-h", "result": 40, "unit": "%"}, {"measurement": "Headache Severity", "setting": "[1]; 0-h (baseline), Depacon IV 500 mg or DHE 1 mg + Reglan 10 mg, sodium", "result": "3 (3×) and 2 (2×)"}, {"measurement": "Headache Severity", "setting": "[1]; 1-h, sodium", "result": "1 (2×) and 0 (2×) and 2"}, {"measurement": "Headache Severity", "setting": "[1]; 2-h, sodium", "result": "1 (4×) and 0"}, {"measurement": "Headache Severity", "setting": "[1]; 4-h, sodium", "result": "0 (3×) and 1 and 2"}, {"measurement": "Nausea/vomiting", "setting": "[1]; 0-h (baseline), sodium", "result": 0}, {"measurement": "Phonophobia", "setting": "[1]; 0-h (baseline), sodium", "result": 0}, {"measurement": "Nausea/vomiting", "setting": "[1]; 1-h, sodium", "result": 0}, {"measurement": "Phonophobia", "setting": "[1]; 1-h, sodium", "result": 0}, {"measurement": "Photophobia", "setting": "[1]; 1-h, sodium", "result": 0}, {"measurement": "Nausea/vomiting", "setting": "[1]; 2-h, sodium", "result": 0}, {"measurement": "Phonophobia", "setting": "[1]; 2-h, sodium", "result": 0}, {"measurement": "Photophobia", "setting": "[1]; 2-h, sodium", "result": 0}, {"measurement": "Nausea/vomiting", "setting": "[1]; 4-h", "result": 0}, {"measurement": "Phonophobia", "setting": "[1]; 4-h", "result": 0}, {"measurement": "Photophobia", "setting": "[1]; 4-h", "result": 0}, {"measurement": "Nausea/vomiting", "setting": "[1]; 24-h, sodium", "result": 0}, {"measurement": "Phonophobia", "setting": "[1]; 24-h, sodium", "result": 0}, {"measurement": "Photophobia", "setting": "[1]; 24-h, sodium", "result": 0}, {"measurement": "patients who had nausea", "setting": "[1]; of 5 patients, 1 hr", "result": 1}, {"measurement": "patients who had relief of phonophobia", "setting": "[1]; of 5 patients, 1 hr", "result": "4 of 5"}, {"measurement": "patients who had relief of photophobia", "setting": "[1]; of 5 patients, 1 hr", "result": "4 of 5"}, {"measurement": "patients with response of headache from moderate or severe to none or mild", "setting": "[1]; of 5 patients, 1 hr", "result": "4 of the 5"}, {"measurement": "patients who had nausea", "setting": "[1]; of 5 patients, 2 hrs", "result": 1}, {"measurement": "patients who had relief of phonophobia", "setting": "[1]; of 5 patients, 2 hrs", "result": "4 of 5"}, {"measurement": "patients who had relief of photophobia", "setting": "[1]; of 5 patients, 2 hrs", "result": "4 of 5"}, {"measurement": "patients with response of headache from moderate or severe to none or mild", "setting": "[1]; of 5 patients, 2 hrs", "result": "4 of the 5"}, {"measurement": "patients who had nausea", "setting": "[1]; of 5 patients, 4 hrs", "result": "all had relief of nausea"}, {"measurement": "patients who had relief of phonophobia", "setting": "[1]; of 5 patients, 4 hrs", "result": "all had relief"}, {"measurement": "patients who had relief of photophobia", "setting": "[1]; of 5 patients, 4 hrs", "result": "all had relief"}, {"measurement": "patients with response of headache from moderate or severe to none or mild", "setting": "[1]; of 5 patients, 4 hrs", "result": "4 of the 5"}, {"measurement": "patients who had nausea", "setting": "[1]; of 5 patients, baseline", "result": "4 of 5"}, {"measurement": "patients who had photophobia", "setting": "[1]; of 5 patients, baseline", "result": "all had photophobia"}, {"measurement": "% experiencing Photophobia", "setting": "[2]", "result": 60, "unit": "%"}]}]}
